Test results: patent US7247628B2, “Cannabinoid receptor ligands and uses thereof” (Pfizer, Inc., priority 2002, dated 2007)

Molecular target: T1, CB-1 receptor (Homo sapiens, UniProt P21554)
T1 construct: expressed in transfected cells; host or cells: HEK 293 cells (membrane preparation); cDNA obtained from Dr. Debra Kendall, University of Connecticut
Test: Human CB-1 receptor binding ([3H]SR141716A displacement)
Conditions: CB-1 receptor binding assay, inhibition of [3H] SR141716A binding
Experimental: Human embryonic kidney 293 (HEK 293) cells transfected with the CB-1 receptor cDNA (obtained from Dr. Debra Kendall, University of Connecticut) were harvested in homogenization buffer (10 mM EDTA, 10 mM EGTA, 10 mM Na Bicarbonate, protease inhibitors; pH=7.4), and homogenized with a Dounce Homogenizer. The homogenate was then spun at 1,000×g for 5 minutes at 4° C. The supernatant was recovered and centrifuged at 25,000×G for 20 minutes at 4° C. The pellet was then re-suspended in 10 ml of homogenization buffer and re-spun at 25,000×G for 20 minutes at 4° C. The final pellet was re-suspended in 1 ml of TME (25 mM Tris buffer (pH=7.4) containing 5 mM MgCl2 and 1 mM EDTA). A protein assay was performed and 200 μl of tissue totaling 20 μg was added to the assay.
The test compounds were diluted in drug buffer (0.5% BSA, 10% DMSO and TME) and then 25 μl were added to a deep well polypropylene plate. [^3H] SR141716A was diluted in a ligand buffer (0.5% BSA plus TME) and 25 μl were added to the plate. The plates were covered and placed in an incubator at 30° C. for 60 minutes. At the end of the incubation period 250 μl of stop buffer (5% BSA plus TME) was added to the reaction plate. […] In the morning the filters were counted on a Wallac Betaplate™ counter (available from PerkinElmer Life Sciences™, Boston, Mass.).

T1 sequence (P21554 whole entry): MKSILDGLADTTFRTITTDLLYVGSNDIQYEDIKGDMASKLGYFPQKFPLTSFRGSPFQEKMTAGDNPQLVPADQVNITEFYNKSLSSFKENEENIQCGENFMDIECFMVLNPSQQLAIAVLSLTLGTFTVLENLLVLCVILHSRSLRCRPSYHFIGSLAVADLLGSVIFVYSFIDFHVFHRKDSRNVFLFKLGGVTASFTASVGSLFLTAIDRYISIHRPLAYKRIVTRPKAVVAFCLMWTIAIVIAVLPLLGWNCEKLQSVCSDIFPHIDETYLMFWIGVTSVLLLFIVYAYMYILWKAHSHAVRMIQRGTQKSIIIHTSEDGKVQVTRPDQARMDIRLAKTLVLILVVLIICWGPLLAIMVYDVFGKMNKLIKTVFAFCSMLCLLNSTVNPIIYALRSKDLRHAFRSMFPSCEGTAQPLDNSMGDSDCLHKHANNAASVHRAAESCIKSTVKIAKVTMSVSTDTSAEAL

Compound `Cc1cccc(CN2CCOC(c3nn(-c4ccccc4Cl)c(-c4ccc(Cl)cc4)c3C)C2)n1` (stereo not shown) [Example 5A-6, 2-[1-(2-Chlorophenyl)-5-(4-chlorophenyl)-4-methyl-1H-pyrazol-3-yl]-4-(6-methyl-pyridin-2-ylmethyl)-morpholine] has a binding affinity of 79 nM.
